From ChEMBL document CHEMBL1142428, “Noreupenifeldin, a tropolone from an unidentified ascomycete” (J Nat Prod, 2008)
pIC50: −log10 of the molar value. ≈ marks a conversion by molar mass, not a printed value. Calls of active or inactive are those of the source. No cut-off for these calls is given here.

Assays:
[1] = test system: Haemonchus contortus; test: Anthelmintic activity against Haemonchus contortus assessed as reduction in L3 larval motility; type: functional
[2] = target: Stromelysin-1 (Homo sapiens, UniProt P08254); test: Inhibition of stromelysin mediated beta-casein cleavage
Sequence of Stromelysin-1 (P08254 whole entry): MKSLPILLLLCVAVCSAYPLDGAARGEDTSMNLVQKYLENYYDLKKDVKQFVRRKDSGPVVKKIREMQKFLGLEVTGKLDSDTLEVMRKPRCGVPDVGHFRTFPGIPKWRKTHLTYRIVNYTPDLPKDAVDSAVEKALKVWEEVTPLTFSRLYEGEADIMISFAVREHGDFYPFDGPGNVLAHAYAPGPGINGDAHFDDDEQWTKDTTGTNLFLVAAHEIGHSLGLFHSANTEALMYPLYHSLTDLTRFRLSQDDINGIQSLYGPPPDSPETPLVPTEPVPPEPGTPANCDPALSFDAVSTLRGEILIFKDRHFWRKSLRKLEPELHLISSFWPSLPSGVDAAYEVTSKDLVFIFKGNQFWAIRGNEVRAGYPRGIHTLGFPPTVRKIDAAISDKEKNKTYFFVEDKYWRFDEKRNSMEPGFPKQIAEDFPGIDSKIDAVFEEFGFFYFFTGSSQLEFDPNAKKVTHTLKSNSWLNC

Compound	Activity [1]	EC90 [1] [µg/mL]	pIC50 [2]
Cc1cc(=O)c(O)cc2c1C[C@@H]1CC(C)(C)/C=C/C[C@@]3(C)Oc4cc(O)cc(C)c4C[C@@H]3C[C@@H](O)[C@]1(C)O2	inactive	–	–
Cc1cc(=O)c(O)cc2c1C[C@@H]1CC(C)(C)/C=C/C[C@@]3(C)Oc4cc(O)c(=O)cc(C)c4C[C@@H]3C[C@@H](O)[C@]1(C)O2 [EUPENIFELDIN]	–	50 (≈ 91.1 µM)	–
Cc1cc(=O)c(O)cc2c1C[C@H]1CC(C)(C)/C=C/C[C@@]3(C)Oc4cc(O)c(=O)cc(C)c4C[C@@H]3C[C@H](O)[C@]1(C)O2 [PYCNIDIONE]	–	83 (≈ 151 µM)	4.51
IVERMECTIN	–	0.18	–
